ChEMBL document CHEMBL1146642, “5-Alkyl-2-[(aryl and alkyloxylcarbonylmethyl)thio]-6-(1-naphthylmethyl) pyrimidin-4(3H)-ones as an unique HIV reverse transcriptase inhibitors of S-DABO series” (Bioorg Med Chem Lett, 2004)
pIC50: −log10 of the molar value.

Columns and labels:
MT4 [1] = test: Cytotoxic concentration that reduces the MT-4 cell viability by 50%; format: functional; settings: Homo sapiens
MT4 [2] = test: Concentration required to protect the cell against HIV-2 strain ROD viral cytopathogenicity by 50% in MT-4 cells; format: functional, cell-based, Human immunodeficiency virus 2; settings: Homo sapiens
MT4 [3] = test: Concentration required to protect the cell against HIV-2 strain ROD viral cytopathogenicity by 50% in MT-4 cells; NA denotes not active; format: functional, cell-based, Homo sapiens
MT4 [4] = test: Concentration required to protect the cell against SO561945 viral cytopathogenicity by 50% in MT-4 cells; format: functional, cell-based; settings: Homo sapiens

SMILES | CC50 (MT4 [1]) [µM] | pIC50 (MT4 [2]) | IC50 (MT4 [3]) | pIC50 (MT4 [4])
O=c1[nH]cnc2c1ncn2[C@H]1CC[C@@H](CO)O1 [DIDANOSINE] | ≥ 529 | 5.57 | – | –
CCc1c(O)nc(SCC(=O)c2ccc(F)cc2)nc1Cc1cccc2ccccc12 | ≥ 240 | 4.79 | – | –
CCOC(=O)CSc1nc(O)c(C(C)C)c(Cc2cccc3ccccc23)n1 | 175 | ≤ 4.39 | – | –
CCOC(=O)CSc1nc(O)c(C)c(Cc2cccc3ccccc23)n1 | ≥ 287 | ≤ 3.53 | – | –
CC(C)c1c(O)nc(SCC(=O)c2ccc(Cl)cc2)nc1Cc1cccc2ccccc12 | > 270 | < 3.57 | – | –
Cc1c(Sc2ccccc2)n(COCCO)c(=O)[nH]c1=O [HEPT] | 405 | – | Not Active | –
COc1ccc(C(=O)CSc2nc(O)c(C)c(Cc3cccc4ccccc34)n2)cc1 | > 290 | ≤ 6.38 | – | –
COc1ccc(C(=O)CSc2nc(Cc3cccc4ccccc34)c(C(C)C)c(=O)[nH]2)cc1 | ≥ 203 | 4.87 | – | –
COC(=O)CSc1nc(O)c(C)c(Cc2cccc3ccccc23)n1 | ≥ 296 | ≤ 3.53 | – | –
Cc1ccc(C(=O)CSc2nc(O)c(C)c(Cc3cccc4ccccc34)n2)cc1 | ≥ 251 | ≤ 4.87 | – | ≤ 3.60
CC(=O)CSc1nc(O)c(C)c(Cc2cccc3ccccc23)n1 | 85 | ≤ 4.07 | – | –
CC(=O)CSc1nc(O)c(C(C)C)c(Cc2cccc3ccccc23)n1 | 43 | < 4.37 | – | –
CCc1c(O)nc(SCC(=O)OC)nc1Cc1cccc2ccccc12 | ≥ 196 | ≤ 3.71 | – | –
Cc1ccnc2c1NC(=O)c1cccnc1N2C1CC1 [NEVIRAPINE] | > 200 | – | Not Active | –
CCc1c(O)nc(SCC(=O)c2ccc(C)cc2)nc1Cc1cccc2ccccc12 | 6 | ≤ 5.90 | – | –
Cc1ccc(C(=O)CSc2nc(O)c(C(C)C)c(Cc3cccc4ccccc34)n2)cc1 | 225 | ≤ 3.65 | – | –
CC(C)c1c(O)nc(SCC(=O)c2ccccc2)nc1Cc1cccc2ccccc12 | 238 | 4.66 | – | –
CC(C)c1c(O)nc(SCC(=O)c2ccc(F)cc2)nc1Cc1cccc2ccccc12 | 186 | ≤ 4.49 | – | –
O=C1Nc2ccc(Cl)cc2[C@@](C#CC2CC2)(C(F)(F)F)O1 [EFAVIRENZ] | 80 | – | Not Active | –
Cc1ccc(C(=O)CSc2nc(O)c(C(C)C)c(Cc3cccc4ccccc34)n2)c(C)c1 | 27 | 5.40 | – | –
COC(=O)CSc1nc(O)c(C(C)C)c(Cc2cccc3ccccc23)n1 | 179 | < 3.75 | – | –
Cc1c(O)nc(SCC(=O)c2ccc(F)cc2)nc1Cc1cccc2ccccc12 | ≥ 275 | ≤ 3.56 | – | –
CCc1c(O)nc(SCC(=O)c2ccc(Cl)cc2)nc1Cc1cccc2ccccc12 | 56 | ≤ 6.59 | – | –
CCc1c(O)nc(SCC(=O)c2ccc(OC)cc2)nc1Cc1cccc2ccccc12 | 178 | ≤ 4.72 | – | –
Cc1c(O)nc(SCC(=O)c2ccc(Cl)cc2)nc1Cc1cccc2ccccc12 | ≥ 198 | 4.70 | – | –
